Assays:
[1] = system: aryl hydrocarbon receptor (AHR) signaling; assay: Cypla1 mRNA (AHR signaling) in ileum of mice with experimental NEC, qPCR; format: in vivo, mouse; conditions: 4 days, vs vehicle
Experimental: (§1) Necrotizing enterocolitis (NEC) was induced in 7-day-old mouse pups by gavage feeding and hypoxia exposure for 4 days in presence of abacavir, lansoprazole, tranilast and raberprazole. The ileum was harvested at the end of the experiment and the mRNA expression of target genes was analyzed by qPCR.
Referring now to FIG. 1, the mRNA expression of Cypla1, the down-stream gene of aryl hydrocarbon receptor (AHR) signaling, was quantified in the ileum of experimental NEC models. Data are represented as mean±SEM; *p<0.05 between indicated groups; each dot represents an individual mouse.

mice with NEC = assay: mRNA of proinflammatory cytokines and NEC markers in ileum of mice with experimental NEC, qPCR; format: in vivo, mouse; conditions: vs vehicle-treated group
Experimental: as §1
Referring now to FIG. 2, the mRNA expression of pro-inflammatory cytokine tumor necrosis factor alpha (Tnf) was quantified in the ileum of experimental NEC models. Data are represented as mean±SEM; *p<0.05 between indicated groups; each dot represents an individual mouse.
Referring now to FIG. 3, the mRNA expression of pro-inflammatory Interleukin-6 (IL-6) was quantified in the ileum of experimental NEC models. Data are represented as mean±SEM; *p<0.05 between indicated groups; each dot represents an individual mouse.
Referring now to FIG. 4, the mRNA expression of NEC marker S100 calcium binding protein A8 (S100a8) was quantified in the ileum of experimental NEC models. Data are represented as mean±SEM; *p<0.05 between indicated groups; each dot represents an individual mouse.
Referring now to FIG. 5, the mRNA expression of NEC marker lipocalin 2 (Lcn2) was quantified in the ileum of experimental NEC models. Data are represented as mean±SEM; *p<0.05 between indicated groups; each dot represents an individual mouse.
Referring now to FIG. 6, the mRNA expression of NEC marker intestinal fatty acid-binding protein (iFabp) was quantified in the ileum of experimental NEC models. Data are represented as mean±SEM; *p<0.05 between indicated groups; each dot represents an individual mouse.

SMILES | mRNA expression of Cypla1, the down-stream gene of AHR signaling [1] | mRNA expression of NEC marker S100a8 (mice with NEC) | mRNA expression of NEC marker iFabp (mice with NEC) | mRNA expression of Interleukin-6 (IL-6) (mice with NEC) | mRNA expression of NEC marker lipocalin 2 (Lcn2) (mice with NEC) | mRNA expression of tumor necrosis factor alpha (Tnf) (mice with NEC)
COCCCOc1ccnc(C[S+]([O-])c2nc3ccccc3[nH]2)c1C (centres unmarked) [raberprazole] | nor raberprazole, activated AHR signaling pathway | significantly attenuated S100a8 expression | significantly attenuated iFabp expression |  |  | 
Cc1c(OCC(F)(F)F)ccnc1C[S+]([O-])c1nc2ccccc2[nH]1 (centres unmarked) [lansoprazole] | activated AHR signaling pathway | significantly attenuated S100a8 expression | significantly attenuated iFabp expression | significantly attenuated IL-6 expression | significantly attenuated Lcn2 expression | significantly attenuated Tnf expression
Nc1nc(NC2CC2)c2ncn([C@H]3C=C[C@@H](CO)C3)c2n1 [abacavir] | activated AHR signaling pathway | significantly attenuated S100a8 expression |  | significantly attenuated IL-6 expression | significantly attenuated Lcn2 expression | significantly attenuated Tnf expression

Source: patent US11458141B2, “Aryl hydrocarbon receptor (AhR) agonists for the prevention and treatment of inflammatory disorders” (The Johns Hopkins University, priority 2017, dated 2022)
